{"source": "PubChem BioAssay AID652269", "about": "(Broad Institute, 2013)", "note": "Several values for one entry are separate records, joined by “and”; a condition that tells them apart may be missing. Identical values can stand only once. Activity calls are given as the source filed them.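 The calls were made as follows: active = median TrxR activity remaining at the top dose below 80%; inactive = the rest.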"}
{"molecular_target": "Thioredoxin reductase 1, cytoplasmic (Rattus norvegicus) (UniProt O89049)", "experiment": "rat TrxR-driven insulin reduction blockade – biochemical, rat TrxR1, insulin turbidity, dry powder, counter-screen for PDI inhibitor project, dose response (AID 652269)", "details": "Trx/TrxR/NADPH insulin reduction, turbidity OD650"}
{"smiles": "O=C(Nc1ccccc1)C1(CCOc2ccccc2)CCN(Cc2ccc(O)c(Cl)c2)CC1", "outcome": "inactive"}
{"molecular_target": "Thioredoxin reductase 1, cytoplasmic (Rattus norvegicus) (UniProt O89049)", "experiment": "rat TrxR-driven insulin reduction blockade – biochemical, rat TrxR1, insulin turbidity, dry powder, counter-screen for PDI inhibitor project, dose response (AID 652269)", "details": "Trx/TrxR/NADPH insulin reduction, turbidity OD650; at 33.3 µM"}
{"smiles": "CCOC(=O)C1(CCOc2ccccc2)CCN(Cc2ccc(OC)c(Cl)c2)CC1", "TrxR activity remaining % (stronger effect = lower value)": "100% (inactive)"}
{"smiles": "C/C1=C\\C[C@H](OC(=O)c2ccc(O)cc2)/C(C)=C/[C@@H](O)C(C)(C)CCC1", "TrxR activity remaining % (stronger effect = lower value)": "97% (inactive)"}
{"smiles": "CCOC(=O)C1(CCOc2ccccc2)CCN(Cc2ccc(O)c(Cl)c2)CC1", "TrxR activity remaining % (stronger effect = lower value)": "100% (inactive) and 94% (inactive)"}
{"smiles": "O=C(NC1CCCC1)C1(CCOc2ccccc2)CCN(Cc2ccc(O)c(Cl)c2)CC1", "TrxR activity remaining % (stronger effect = lower value)": "100% (inactive)"}
{"smiles": "CCOC(=O)C1(CCOc2ccccc2)CCN(C(=O)c2ccc(O)c(Cl)c2)CC1", "TrxR activity remaining % (stronger effect = lower value)": "100% (inactive)"}
{"smiles": "CC(C)(C)OC(=O)C1(CCOc2ccccc2)CCN(Cc2ccc(O)c(Cl)c2)CC1", "TrxR activity remaining % (stronger effect = lower value)": "100% (inactive)"}
{"smiles": "CC(C)OC(=O)C1(CCOc2ccccc2)CCN(Cc2ccc(O)c(Cl)c2)CC1", "TrxR activity remaining % (stronger effect = lower value)": "100% (inactive)"}
{"smiles": "CCOC(=O)c1c(CN2CCN(CCO)CC2)n(-c2ccccc2)c2cc(Br)c(O)cc12", "TrxR activity remaining % (stronger effect = lower value)": "100% (inactive)"}
{"smiles": "CCOC(=O)C1(CCOc2ccccc2)CCN(Cc2ccc(O)cc2)CC1", "TrxR activity remaining % (stronger effect = lower value)": "100% (inactive)"}
